# The source made the active and inactive calls. The rule behind the calls is not given here.
# How the values were obtained:
# [1] = tested on: Rattus norvegicus; assay: Estrogenic activity in female Rattus norvegicus Wistar (rat)assessed as change in uterine weight at 5 mg/kg, sc QD for 3 days relative to control; conditions: in vivo, 72 h
# [2] = tested on: Rattus norvegicus; assay: Antiestrogenic activity in female Rattus norvegicus Wistar (rat) assessed as decrease in estradiol benzoate-induced uterine weight at 5 mg/kg, sc QD for 3 days relative to control; assay type: functional; conditions: 72 h, route subcutaneous
# [3] = tested on: HT-29; assay: Growth inhibition of Homo sapiens (human) HT-29 cells at 10^-12 to 10^-6 M after 48 hr by MTT assay; assay type: functional
# [4] = tested on: MCF7; assay: Growth inhibition of Homo sapiens (human) MCF-7 cells at 10^-12 to 10^-7 M after 48 hr by MTT assay; assay type: functional
# [5] = tested on: MDA-MB-231; assay type: functional, Homo sapiens
# Description: Growth inhibition of Homo sapiens (human) MDA-MB-231 cells at 10^-12 to 10^-6 M after 48 hr by MTT assay
# [6] = tested on: Rattus norvegicus; assay: Estrogenic activity in female Rattus norvegicus Wistar (rat) assessed as change in uterine weight at 25 mg/kg, sc QD for 3 days relative to control; conditions: in vivo, 72 h
# [7] = tested on: MCF7; assay: Growth inhibition of Homo sapiens (human) MCF-7 cell growth at 10^-6 M after 48 hr by MTT assay; assay type: functional, cell-based
# [8] = tested on: MCF7; assay: Induction of Homo sapiens (human) MCF7 cell growth at 10^-6 M after 48 hr by MTT assay; conditions: mcf7, 48 h, 1 µM
# [9] = tested on: Rattus norvegicus; assay: Antiestrogenic activity in female Rattus norvegicus Wistar (rat) assessed as decrease in estradiol benzoate-induced uterine weight at 25 mg/kg, sc QD for 3 days relative to control; assay type: functional; conditions: 72 h, route subcutaneous
# [10] = biological target: T1, Aromatase (Rattus norvegicus, UniProt P22443); assay: Inhibition of aromatase in Rattus norvegicus (rat) PMSG-treated denucleated ovarian fraction using testosterone as substrate at 10 uM after 15 min by radioimmuno assay; conditions: 0.25 h
# T1 sequence (P22443 whole entry): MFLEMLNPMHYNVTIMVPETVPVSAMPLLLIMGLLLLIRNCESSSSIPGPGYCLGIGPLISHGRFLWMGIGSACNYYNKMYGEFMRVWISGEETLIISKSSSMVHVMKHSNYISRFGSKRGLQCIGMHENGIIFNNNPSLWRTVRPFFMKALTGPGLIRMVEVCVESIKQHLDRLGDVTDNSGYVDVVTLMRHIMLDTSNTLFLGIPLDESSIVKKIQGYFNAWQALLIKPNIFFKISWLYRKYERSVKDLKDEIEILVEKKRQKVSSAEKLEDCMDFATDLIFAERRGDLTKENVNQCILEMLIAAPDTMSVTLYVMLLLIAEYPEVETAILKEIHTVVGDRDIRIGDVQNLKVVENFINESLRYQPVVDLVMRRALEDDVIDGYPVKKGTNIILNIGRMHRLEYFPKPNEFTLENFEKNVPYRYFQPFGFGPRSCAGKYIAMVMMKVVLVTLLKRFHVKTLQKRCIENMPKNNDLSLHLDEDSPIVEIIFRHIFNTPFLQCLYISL
# [11] = biological target: T1, Aromatase; assay: Inhibition of aromatase in Rattus norvegicus (rat) PMSG-treated denucleated ovarian fraction using testosterone as substrate at 50 uM after 15 min by radioimmuno assay; conditions: 0.25 h
# [12] = tested on: MCF7; assay: Growth inhibition of Homo sapiens (human) MCF-7 cells at 10^-12 to 10^-6 M after 48 hr by MTT assay; assay type: functional
# [13] = Growth inhibition of Homo sapiens (human) MRC5 cells at 10^-12 to 10^-6 M after 48 hr by MTT assay; assay type: cell-based; conditions: read-out: GI
# [14] = tested on: MCF7; assay: Growth inhibition of Homo sapiens (human) MCF-7 cells at 10^-12 to 10^-9 M after 48 hr by MTT assay; assay type: functional
# [15] = tested on: MRC5; assay: Cytotoxicity against Homo sapiens (human) MRC5 cells at 10^-12 to 10^-6 M after 48 hr by MTT assay; assay type: cell-based; conditions: mrc5, 48 h
# [16] = tested on: HT-29; assay: Growth inhibition of Homo sapiens (human) HT-29 cells at 10^-12 to 10^-9 M after 48 hr by MTT assay; assay type: functional, cell-based
Structure (SMILES),Activity [1],inhibition in vivo at 5 mg/kg [2],growth inhibition (GI) [3],growth inhibition (GI) [4],growth inhibition (GI) [5],Activity [6],growth inhibition (GI) [7],Activity [8],inhibition in vivo at 25 mg/kg [9],inhibition at 10 µM [10],inhibition at 50 µM [11],growth inhibition (GI) [12],inhibition at 48 h [13],growth inhibition (GI) [14],Activity [15],growth inhibition (GI) [16]
C[C@]1(CO)CC[C@@H]2c3ccc(OCc4ccccc4)cc3CC[C@H]2[C@@H]1CC#N,0.71%,31.5%,,,,,,,,,,,,,,
CC/C(=C(\c1ccccc1)c1ccc(OCCN(C)C)cc1)c1ccccc1.O=C(O)CC(O)(CC(=O)O)C(=O)O [TAMOXIFEN CITRATE],39.78%,,Active,Active,30%,39.36%,inactive,Non-toxic,62.8%,,,,,,,
C[C@]1(CO)CC[C@@H]2c3ccc(O)cc3CC[C@H]2[C@@H]1CC#N,-2.06%,21.1%,,,,,,,,,,,,,,
C[C@]12CC[C@@H]3c4ccc(O)cc4CC[C@H]3[C@@H]1CC[C@@H]2O [ESTRADIOL],,,20%,10%,,,inactive,Non-toxic,,,,,,,,
C[C@]1(COC(=O)CCC(=O)O)CC[C@@H]2c3ccc(O)cc3CC[C@H]2[C@@H]1CC#N,-6.78%,41.6%,30%,,30%,6.42%,,,11.9%,-10.6%,0.1%,30%,,,,
C[C@]1(COC(=O)CCCC(=O)O)CC[C@@H]2c3ccc(O)cc3CC[C@H]2[C@@H]1CC#N,-9.63%,13.8%,10%,,10%,,,,,16.6%,67.3%,10%,10%,,,
C[C@]1(COC(=O)CCC(=O)O)CC[C@@H]2c3ccc(OCc4ccccc4)cc3CC[C@H]2[C@@H]1CC#N,-2.28%,2.82%,40%,,40%,,,,,7.02%,21.2%,40%,40%,,,
C[C@]1(COC(=O)CCCC(=O)O)CC[C@@H]2c3ccc(OCc4ccccc4)cc3CC[C@H]2[C@@H]1CC#N,-3.92%,8.5%,,,,,,,,17.9%,88.2%,,,20%,Non-toxic,Active
